# Measured values from ChEMBL document CHEMBL1123765, “Psychotropic agents: synthesis and antipsychotic activity of substituted beta-carbolines” (J Med Chem, 1987).
# Key:
# [1] = target: D(2) dopamine receptor (Rattus norvegicus) (UniProt P61169); experiment: In vitro binding affinity for Dopamine receptor D2 of rat nucleus accumbens labeled with [3H]spiperone was determined at 10 uM concentration
# [2] = target: D(2) dopamine receptor (Rattus norvegicus) (UniProt P61169); experiment: In vitro binding affinity for Dopamine receptor D2 of rat nucleus accumbens labeled with [3H]spiperone was determined at 1 uM concentration
# Rattus norvegicus [3] = experiment: Antipsychotic activity was assessed by ability to block response of rats trained to avoid an electrical shock (inhibition of self-jump and/or discrete trial conditioned avoidance response(CAR) upon ip administration; type: functional
# Rattus norvegicus [4] = experiment: Antipsychotic activity was assessed by ability to block response of rats trained to avoid an electrical shock (inhibition of self-jump and/or discrete trial conditioned avoidance response(CAR) upon ip administration.; type: functional
# [5] = target: D(2) dopamine receptor (Rattus norvegicus) (UniProt P61169); experiment: In vitro binding affinity for Dopamine receptor D2 of rat striatum labeled with [3H]spiperone was determined at 10 uM concentration; type: tissue-based
# Rattus norvegicus [6] = experiment: Antipsychotic activity was assessed by ability to block response of rats trained to avoid an electrical shock (inhibition of self-jump and/or discrete trial conditioned avoidance response(CAR) upon ip administration; value ranges from 14-49; type: functional
# Rattus norvegicus [7] = experiment: Antipsychotic activity was assessed by ability to block response of rats trained to avoid an electrical shock (inhibition of self-jump and/or discrete trial conditioned avoidance response(CAR) upon ip administration; value ranges from 30-62; type: functional
# Rattus norvegicus [8] = experiment: Antipsychotic activity was assessed by ability to block response of rats trained to avoid an electrical shock (inhibition of self-jump and/or discrete trial conditioned avoidance response(CAR) upon ip administration; value ranges from 2-7; type: functional
# Rattus norvegicus [9] = experiment: Antipsychotic activity was assessed by ability to block response of rats trained to avoid an electrical shock (inhibition of self-jump and/or discrete trial conditioned avoidance response(CAR) upon po administration; value ranges from 2-3; type: functional
# Rattus norvegicus [10] = experiment: Antipsychotic activity was assessed by ability to block response of rats trained to avoid an electrical shock (inhibition of self-jump and/or discrete trial conditioned avoidance response(CAR) upon po administration; value ranges from 8-17; type: functional
# Rattus norvegicus [11] = experiment: Antipsychotic activity was assessed by ability to block response of rats trained to avoid an electrical shock (inhibition of self-jump and/or discrete trial conditioned avoidance response(CAR) upon ip administration; value ranges from 6.5-7.5; type: functional
# D(2) dopamine receptor [12] = target: T1, D(2) dopamine receptor (Rattus norvegicus, UniProt P61169); experiment: In vitro binding affinity for Dopamine receptor D2 of rat nucleus accumbens labeled with [3H]spiperone was determined at 10 uM concentration.
# Rattus norvegicus [13] = experiment: Antipsychotic activity was assessed by ability to block response of rats trained to avoid an electrical shock (inhibition of self-jump and/or discrete trial conditioned avoidance response(CAR) upon ip administration; value ranges from 0.12-0.33; type: functional
# Rattus norvegicus [14] = experiment: Antipsychotic activity was assessed by ability to block response of rats trained to avoid an electrical shock (inhibition of self-jump and/or discrete trial conditioned avoidance response(CAR) upon po administration; value ranges from 0.1-3.5; type: functional
# Rattus norvegicus [15] = experiment: Antipsychotic activity was assessed by ability to block response of rats trained to avoid an electrical shock (inhibition of self-jump and/or discrete trial conditioned avoidance response(CAR) upon ip administration; value ranges from 33-37; type: functional
# Rattus norvegicus [16] = experiment: Antipsychotic activity was assessed by ability to block response of rats trained to avoid an electrical shock (inhibition of self-jump and/or discrete trial conditioned avoidance response(CAR) upon ip administration; value ranges from 19-78; type: functional
# D(2) dopamine receptor [17] = target: T1, D(2) dopamine receptor; experiment: In vitro binding affinity for Dopamine receptor D2 of rat striatum labeled with [3H]-spiperone was determined
# Rattus norvegicus [18] = experiment: Antipsychotic activity was assessed by ability to block response of rats trained to avoid an electrical shock (inhibition of self-jump and/or discrete trial conditioned avoidance response(CAR) upon po administration; value ranges from 30-33; type: functional
# Rattus norvegicus [19] = experiment: Antipsychotic activity was assessed by ability to block response of rats trained to avoid an electrical shock (inhibition of self-jump and/or discrete trial conditioned avoidance response(CAR) upon ip administration; value ranges from 9-24; type: functional
# Rattus norvegicus [20] = experiment: Antipsychotic activity was assessed by ability to block response of rats trained to avoid an electrical shock (inhibition of self-jump and/or discrete trial conditioned avoidance response (CAR) upon ip administration.* >40 indicates insignificant aactivity; type: functional
# Rattus norvegicus [21] = experiment: Antipsychotic activity was assessed by ability to block response of rats trained to avoid an electrical shock (inhibition of self-jump and/or discrete trial conditioned avoidance response(CAR) upon ip administration; value ranges from 15-22; type: functional
# [22] = target: D(2) dopamine receptor (Rattus norvegicus) (UniProt P61169); experiment: In vitro binding affinity for Dopamine receptor D2 of rat nucleus accumbens labeled with [3H]-spiperone was determined at 1 uM concentration
# Rattus norvegicus [23] = experiment: Antipsychotic activity was assessed by ability to block response of rats trained to avoid an electrical shock (inhibition of self-jump and/or discrete trial conditioned avoidance response(CAR) upon ip administration; value ranges from 15-33; type: functional
# [24] = target: D(2) dopamine receptor (Rattus norvegicus) (UniProt P61169); experiment: In vitro binding affinity for Dopamine receptor D2 of rat striatum labeled with [3H]-spiperone was determined at 10 uM concentration; type: tissue-based
# Rattus norvegicus [25] = experiment: Antipsychotic activity was assessed by ability to block response of rats trained to avoid an electrical shock (inhibition of self-jump and/or discrete trial conditioned avoidance response(CAR) upon ip administration; value ranges from 7-18; type: functional
# Sequence of D(2) dopamine receptor (Rattus norvegicus) (P61169 whole entry): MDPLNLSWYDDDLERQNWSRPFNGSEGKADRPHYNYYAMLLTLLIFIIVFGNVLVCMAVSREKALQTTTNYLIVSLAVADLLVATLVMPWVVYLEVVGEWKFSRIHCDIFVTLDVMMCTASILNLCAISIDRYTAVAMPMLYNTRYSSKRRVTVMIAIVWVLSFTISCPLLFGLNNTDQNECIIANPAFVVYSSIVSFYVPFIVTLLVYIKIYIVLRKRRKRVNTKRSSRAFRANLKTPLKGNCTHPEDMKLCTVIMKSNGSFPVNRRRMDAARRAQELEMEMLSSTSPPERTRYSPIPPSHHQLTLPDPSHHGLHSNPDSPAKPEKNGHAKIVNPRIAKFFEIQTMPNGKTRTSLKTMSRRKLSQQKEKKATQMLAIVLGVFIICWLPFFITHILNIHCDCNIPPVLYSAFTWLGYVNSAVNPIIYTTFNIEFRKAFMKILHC
# T1 sequence (P61169 whole entry): as above
inhibition [2] [%],SMILES,AB50 (Rattus norvegicus [3]) [mg/kg],other results
15,COc1ccc2[nH]c3c(c2c1)CCN(Cc1c(OC)cccc1OC)C3,–,inhibition [1]: 27%
–,FC(F)(F)c1cccc(N2CCN(CCCN3CCc4c([nH]c5ccccc45)C3)CC2)c1,>40,–
–,c1ccc2c3c([nH]c2c1)CN(CCCc1ccncc1)CC3,–,AB50 (Rattus norvegicus [4]): 40 mg/kg
7,c1ccc2c(N3CCc4c([nH]c5ccccc45)C3)ccnc2c1,>40,–
26,c1ccc2c(CN3CCc4c([nH]c5ccccc45)C3)ccnc2c1,>40,–
–,Fc1ccc2[nH]c3c(c2c1)CCN(CCc1ccc2ccccc2n1)C3,40,–
–,Clc1cccc(N2CCN(CCCn3c4c(c5ccccc53)CCN(CCc3ccccn3)C4)CC2)c1,>40,–
–,FC(F)(F)c1ccc(CN2CCN(CCCN3CCc4c([nH]c5ccccc45)C3)CC2)cc1,>40,–
6,Cn1c(CN2CCc3c([nH]c4ccccc34)C2)nc2ccccc21,–,–
13,c1ccc2c3c([nH]c2c1)CN(Cc1ccncc1)CC3,–,inhibition [5]: 27%
6,O=C(c1nccc2ccccc12)N1CCc2c([nH]c3ccccc23)C1,>40,–
–,c1ccc(Cn2c3c(c4ccccc42)CCN(CCc2ccccn2)C3)cc1,>40,–
–,CN(C)CCCn1c2c(c3ccccc31)CCN(CCCc1cccnc1)C2,>40,inhibition [1]: 17%
–,Clc1cccc(N2CCN(CCCn3c4c(c5ccccc53)CCN(CCCc3cccnc3)C4)CC2)c1,>40,–
38,c1ccc(CCN2CCc3c([nH]c4ccccc34)C2)nc1,–,AB50 (Rattus norvegicus [6]): 23 mg/kg
–,Clc1ccc2[nH]c3c(c2c1)CCN(CCc1ccc2ccccc2n1)C3,>40,–
51,Clc1ccc2[nH]c3c(c2c1)CCN(CCCCc1ccncc1)C3,>40,–
–,C[C@@H]1CN(CCCn2c3ccccc3c3ccccc32)C[C@H](C)N1 [RIMCAZOLE],–,AB50 (Rattus norvegicus [7]): 39 mg/kg
–,Clc1cccc(N2CCN(CCCN3CCc4c([nH]c5ccccc45)C3)CC2)c1,>40,–
–,CN(C)CCCN1c2ccccc2Sc2ccc(Cl)cc21 [CHLORPROMAZINE],–,AB50 (Rattus norvegicus [8]): 4 mg/kg; AB50 (Rattus norvegicus [9]): 3 mg/kg
–,c1cncc(CCCN2CCc3c(n(CCCN4CCCCC4)c4ccccc34)C2)c1,>40,inhibition [1]: 26%
–,Fc1ccc(C(c2ccc(F)cc2)N2CCN(CCCN3CCc4c([nH]c5ccccc45)C3)CC2)cc1,>40,–
–,CN1CCN(C2=Nc3cc(Cl)ccc3Nc3ccccc32)CC1 [CLOZAPINE],–,AB50 (Rattus norvegicus [10]): 11 mg/kg; AB50 (Rattus norvegicus [11]): 7 mg/kg
–,c1ccc2c(c1)c1c(n2CCCN2CCCCC2)CN(CCCc2ccncc2)CC1,>40,inhibition [1]: 22%

inhibition [2] [%],SMILES,AB50 (Rattus norvegicus [3]) [mg/kg],other results
75,Fc1ccc2[nH]c3c(c2c1)CCN(CCc1ccccn1)C3,40,–
–,Fc1ccc2[nH]c3c(c2c1)CCN(CCCCc1ccncc1)C3,>40,Ki (D(2) dopamine receptor [12]): 720 nM
13,c1ccc2c3c([nH]c2c1)CN(CCc1cnccn1)CC3,–,–
–,O=C(CCCN1CCC(O)(c2ccc(Cl)cc2)CC1)c1ccc(F)cc1 [HALOPERIDOL],–,AB50 (Rattus norvegicus [13]): 0.2 mg/kg; AB50 (Rattus norvegicus [14]): 0.2 mg/kg
–,c1cnc(N2CCN(CCCN3CCc4c([nH]c5ccccc45)C3)CC2)nc1,–,AB50 (Rattus norvegicus [15]): 35 mg/kg
–,c1ccc2nc(CCCCN3CCc4c([nH]c5ccccc45)C3)ccc2c1,–,AB50 (Rattus norvegicus [16]): 31 mg/kg; Ki (D(2) dopamine receptor [17]): 139 nM
7,c1coc(CN2CCc3c([nH]c4ccccc34)C2)c1,–,–
0,CN(C)CCCn1c2c(c3ccccc31)CCN(CCCc1ccncc1)C2,>40,–
–,c1ccc2c3c([nH]c2c1)CN(CCCCc1ccncc1)CC3,–,Ki (D(2) dopamine receptor [17]): 525 nM; AB50 (Rattus norvegicus [18]): 31 mg/kg; AB50 (Rattus norvegicus [19]): 14 mg/kg
–,Clc1ccc2[nH]c3c(c2c1)CCN(CCc1ccncc1)C3,–,AB50 (Rattus norvegicus [20]): >40 mg/kg
–,Fc1ccc(C(CCCN2CCc3c([nH]c4ccccc34)C2)c2ccc(F)cc2)cc1,>40,–
–,c1ccc2c(CCCCN3CCc4c([nH]c5ccccc45)C3)ccnc2c1,–,AB50 (Rattus norvegicus [21]): 18 mg/kg
38,CC1CN(CCCN2CCc3c([nH]c4ccccc34)C2)CC(C)N1 (configuration not stated),>40,–
–,O=C(CCCn1c2c(c3ccccc31)CCN(CCc1ccccn1)C2)c1ccc(F)cc1,>40,–
–,COc1ccc2[nH]c3c(c2c1)CCN(CCc1ccncc1)C3,–,inhibition [22]: 53%
–,c1cncc(CCCN2CCc3c([nH]c4ccccc34)C2)c1,–,AB50 (Rattus norvegicus [23]): 21 mg/kg
7,c1ccc2nc(CN3CCc4c([nH]c5ccccc45)C3)ccc2c1,48,inhibition [24]: 7%
–,c1ccc(CCN2CCc3c(n(CCCN4CCCCC4)c4ccccc34)C2)nc1,>40,inhibition [1]: 9%
–,c1ccc2nc(CCN3CCc4c([nH]c5ccccc45)C3)ccc2c1,–,Ki (D(2) dopamine receptor [17]): 211 nM; AB50 (Rattus norvegicus [25]): 10 mg/kg
15,COc1cccc(OC)c1CN1CCc2c([nH]c3ccccc23)C1,–,inhibition [1]: 27%
–,Fc1ccc2[nH]c3c(c2c1)CCN(CCCCc1ccnc2ccccc12)C3,>40,–
8,COc1ccc2[nH]c3c(c2c1)CCN(CCc1ccccn1)C3,–,–
–,OC1(c2ccc(Cl)cc2)CCN(CCCn2c3c(c4ccccc42)CCN(CCc2ccccn2)C3)CC1,>40,–
